Relative viability data for one cell line are collected here from the supplement of paper PMC10307832.

Holding throughout (assay): relative viability (nuclei count vs DMSO), 5 days (fraction); higher = more cells survive
Compound in test [1]: CS(=O)(=O)c1ccc(-c2cnc(N)c(C(=O)Nc3ccccc3)n2)cc1 [VE-821] + O=C(c1cc(Cc2n[nH]c(=O)c3ccccc23)ccc1F)N1CCN(C(=O)C2CC2)CC1 [Olaparib] (partner 8 µM)
The method in brief: (§1)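 Lung cancer cell lines were pin-tool dosed in 1536-well plates on the day after seeding, with either a lone drug or a fixed anchor-drug dose plus five library-drug doses (not always all listed) in √10 steps. Nuclei were counted on 4× images after 5 days. Relative viability is the ratio of treated-well to vehicle-well nuclei counts, with each value a median of duplicate plates.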

Compound in test [2]: CS(=O)(=O)c1ccc(C(=O)Nc2ccc(Cl)c(-c3ccccn3)c2)c(Cl)c1 [Vismodegib] + CC(=O)c1c(C)c2cnc(Nc3ccc(N4CCNCC4)cn3)nc2n(C2CCCC2)c1=O [Palbociclib] (partner 0.5 µM)
The essentials: as §1

Compound in test [3]: CS(=O)(=O)c1ccc(C(=O)Nc2ccc(Cl)c(-c3ccccn3)c2)c(Cl)c1 [Vismodegib] + C[C@]1(O)C[C@@H](c2nc(-c3ccc4ccc(-c5ccccc5)nc4c3)c3c(N)nccn32)C1 [Linsitinib] (partner 1 µM)
The method in brief: as §1

Compound in test [4]: N#CC[C@H](C1CCCC1)n1cc(-c2ncnc3[nH]ccc23)cn1 [Ruxolitinib] + CC(=O)c1c(C)c2cnc(Nc3ccc(N4CCNCC4)cn3)nc2n(C2CCCC2)c1=O [Palbociclib] (partner 0.5 µM)
The method in brief:
as §1

Consider UMC-11, for which the relative viability was 0.82 in test [1] (first compound 0.08 µM); 0.429 in test [1] (first compound 0.253 µM); 0.374 in test [1] (first compound 0.8 µM); 0.274 in test [1] (first compound 2.53 µM); 0.208 in test [1] (first compound 8 µM); 0.343 in test [2] (first compound 0.08 µM). Further, the relative viability in test [2] (first compound 0.253 µM) stood at 0.346; in test [2] (first compound 0.8 µM), 0.298; in test [2] (first compound 2.53 µM), 0.351; in test [2] (first compound 8 µM), 0.344; in test [3] (first compound 0.08 µM), 0.931; in test [3] (first compound 0.253 µM), 0.996. Moreover, the relative viability in test [3] (first compound 0.8 µM) turned out to be 1.06; in test [3] (first compound 2.53 µM), 0.927; in test [3] (first compound 8 µM), 1; in test [4] (first compound 0.08 µM) it was 0.345; in test [4] (first compound 0.253 µM), 0.399; in test [4] (first compound 0.8 µM), 0.329. Moreover, the relative viability in test [4] (first compound 2.53 µM) was found to be 0.366; in test [4] (first compound 8 µM), 0.362.
